Like-named read-outs stand apart in the source and are kept apart here. Bounds are passed on as bounds.

Experiment in all cases: Drug-drug interaction, CYP inhibition in human liver microsomes, cocktail method
What all share (type): in vitro ADME
(In general: Microsomes from liver hold many membrane-bound enzymes, among them those of drug oxidation.)

One data set concerns the target T1, CYP2D6 (Homo sapiens, UniProt P10635).
T1 construct: from tissue; host or cells: human liver microsomes
The method, then: (§1) The inhibitory effects of compounds on the activity of human liver microsomal cytochrome P450 isoenzymes (CYP1A2, CYP2C9, CYP2C19, CYP2D6, and CYP3A) were evaluated using a cocktail method with specific probe substrates for CYP1A2, CYP2C9, CYP2C19, CYP2D6, and CYP3A.
(§2) Human liver microsomes, probe substrates, positive control inhibitor, and reduced nicotinamide adenine dinucleotide phosphate.
(§3) 20 µL of a substrate solution was added to the corresponding well of a reaction plate, and 20 µL of potassium phosphate buffer was added to the blank wells.
(§4) 2 µL of a test compound working solution and positive control working solution were added to the corresponding wells, and 2 µL of solvent was added to the inhibitor-free wells and blank wells.
(§5) Human liver microsomal working solution was prepared, and 158 µL of human liver microsomal working solution was added to each well of the reaction plate.
(§6) The reaction plate was preheated at 37.0 °C for 10 minutes.
(§7) 20 µL of NADPH cofactor working solution was added to the reaction plate to initiate the reaction.
(§8) The mixture was mixed and incubated in a 37.0 °C water bath for 10 minutes, and 400 µL of stop solution was added to the reaction plate to terminate the reaction.
(§9) The sample plate was placed in a centrifuge, and centrifuged at 4000 rpm for 20 minutes.
(§10) 200 µL of supernatant was taken out, and appropriate 100 µL of pure water was added for dilution. The plate was shaken until the mixture was mixed well.
(§11) The analysis was performed using liquid chromatography-tandem mass spectrometry (LC-MS/MS).
(§12) The IC50 values of the assay samples were calculated by performing a three-parameter or four-parameter nonlinear regression analysis using XL fit software, with the remaining percentage of activity as the ordinate and the assay sample concentration as the abscissa. When the IC50 obtained by fitting with XL fit software was greater than the maximum administration concentration (50.0 µM) or IC50 could not be obtained by fitting, the IC50 value was marked as ">50.0 µM".
(§13) Three-parameter equation: y = (max)/(1 + (((x)/(IC50)))^−hillslope) [formula]
(§14) Four-parameter equation: y = min + (max−min)/(1 + (((x)/(IC50)))^−hillslope) [formula] max: maximum enzyme activity; min: minimum enzyme activity; x: concentration of the assay sample or positive control inhibitor; y: enzyme activity at the corresponding concentration; hillslope: slope; IC50: half-maximal inhibitory concentration; the four-parameter equation was used when the minimum enzyme activity was within ±10%, otherwise the three-parameter equation was used. Drug-drug interaction assay results of the compounds of the present disclosure

Another data set concerns the target T2, CYP2C19 (Homo sapiens, UniProt P33261).
T2 construct: from tissue; host or cells: human liver microsomes
The procedure: as §1, §2, §3, §4, §5, §6, §7, §8, §9, §10, §11, §12, §13, §14

Another data set concerns the target T3, CYP1A2 (Homo sapiens, UniProt P05177).
T3 construct: from tissue; host or cells: human liver microsomes
T3 sequence (P05177 1-516): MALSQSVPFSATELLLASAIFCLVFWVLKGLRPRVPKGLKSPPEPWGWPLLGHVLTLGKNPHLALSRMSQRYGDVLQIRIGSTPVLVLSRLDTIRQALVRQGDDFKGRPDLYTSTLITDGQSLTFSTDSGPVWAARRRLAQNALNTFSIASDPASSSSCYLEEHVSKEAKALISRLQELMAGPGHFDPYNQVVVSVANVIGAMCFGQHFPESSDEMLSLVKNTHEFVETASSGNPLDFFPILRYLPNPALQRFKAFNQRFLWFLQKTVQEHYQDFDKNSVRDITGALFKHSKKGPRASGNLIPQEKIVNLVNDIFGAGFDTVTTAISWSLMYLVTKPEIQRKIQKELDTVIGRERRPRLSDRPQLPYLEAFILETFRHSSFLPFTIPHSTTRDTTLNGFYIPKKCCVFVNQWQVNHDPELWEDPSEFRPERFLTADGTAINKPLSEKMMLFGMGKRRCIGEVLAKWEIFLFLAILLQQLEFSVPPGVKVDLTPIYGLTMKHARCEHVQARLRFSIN
The method, then:
as §1, §2, §3, §4, §5, §6, §7, §8, §9, §10, §11, §12, §13, §14

The target in a further data set is T4, CYP2C9 (Homo sapiens, UniProt P11712).
T4 construct: from tissue; host or cells: human liver microsomes
The procedure:
as §1, §2, §3, §4, §5, §6, §7, §8, §9, §10, §11, §12, §13, §14

A further data set deals with CYP3A4 (Homo sapiens, UniProt P08684). The procedure:
as §1, §2, §3, §4, §5, §6, §7, §8, §9, §10, §11, §12, §13, §14

Where [1] appears, read: human liver microsomes, maximum concentration 50.0 µM, read-out: CYP 2D6 (IC50).
The mark [2] stands for this setting: human liver microsomes, maximum concentration 50.0 µM, read-out: CYP 2C19 (IC50).
The mark [3] stands for this setting: human liver microsomes, maximum concentration 50.0 µM, read-out: CYP 1A2 (IC50).
The mark [4] stands for this setting: human liver microsomes, maximum concentration 50.0 µM, read-out: CYP 2C9 (IC50).
Setting [5] is: human liver microsomes, maximum concentration 50.0 µM, read-out: CYP 3A4 (IC50).

T2 sequence (P33261 whole entry): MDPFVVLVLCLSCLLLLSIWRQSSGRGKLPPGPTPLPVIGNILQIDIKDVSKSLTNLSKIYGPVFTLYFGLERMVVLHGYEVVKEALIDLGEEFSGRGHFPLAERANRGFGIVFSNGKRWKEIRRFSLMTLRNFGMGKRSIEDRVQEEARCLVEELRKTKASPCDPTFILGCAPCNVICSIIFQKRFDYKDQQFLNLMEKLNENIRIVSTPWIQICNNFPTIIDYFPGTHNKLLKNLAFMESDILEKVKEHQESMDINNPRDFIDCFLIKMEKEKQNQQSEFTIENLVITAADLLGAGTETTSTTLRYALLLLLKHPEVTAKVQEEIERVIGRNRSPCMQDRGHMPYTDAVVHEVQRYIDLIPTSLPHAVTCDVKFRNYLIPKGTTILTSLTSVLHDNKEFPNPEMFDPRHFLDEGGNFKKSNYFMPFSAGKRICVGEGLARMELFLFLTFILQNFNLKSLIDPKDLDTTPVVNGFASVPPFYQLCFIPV
T1 sequence (P10635 whole entry): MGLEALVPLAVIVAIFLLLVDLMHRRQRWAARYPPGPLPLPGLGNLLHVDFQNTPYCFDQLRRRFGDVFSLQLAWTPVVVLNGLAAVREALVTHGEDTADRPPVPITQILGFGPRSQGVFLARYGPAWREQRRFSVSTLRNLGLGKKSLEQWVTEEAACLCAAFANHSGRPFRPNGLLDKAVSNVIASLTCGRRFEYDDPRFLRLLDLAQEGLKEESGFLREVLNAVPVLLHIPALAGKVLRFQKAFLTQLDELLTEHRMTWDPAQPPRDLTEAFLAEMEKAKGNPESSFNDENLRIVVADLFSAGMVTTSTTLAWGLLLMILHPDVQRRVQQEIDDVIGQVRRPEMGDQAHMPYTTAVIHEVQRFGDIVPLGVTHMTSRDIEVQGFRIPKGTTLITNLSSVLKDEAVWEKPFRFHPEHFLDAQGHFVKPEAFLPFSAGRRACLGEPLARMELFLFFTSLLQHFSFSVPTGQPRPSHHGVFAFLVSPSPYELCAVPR
T4 sequence (P11712 whole entry): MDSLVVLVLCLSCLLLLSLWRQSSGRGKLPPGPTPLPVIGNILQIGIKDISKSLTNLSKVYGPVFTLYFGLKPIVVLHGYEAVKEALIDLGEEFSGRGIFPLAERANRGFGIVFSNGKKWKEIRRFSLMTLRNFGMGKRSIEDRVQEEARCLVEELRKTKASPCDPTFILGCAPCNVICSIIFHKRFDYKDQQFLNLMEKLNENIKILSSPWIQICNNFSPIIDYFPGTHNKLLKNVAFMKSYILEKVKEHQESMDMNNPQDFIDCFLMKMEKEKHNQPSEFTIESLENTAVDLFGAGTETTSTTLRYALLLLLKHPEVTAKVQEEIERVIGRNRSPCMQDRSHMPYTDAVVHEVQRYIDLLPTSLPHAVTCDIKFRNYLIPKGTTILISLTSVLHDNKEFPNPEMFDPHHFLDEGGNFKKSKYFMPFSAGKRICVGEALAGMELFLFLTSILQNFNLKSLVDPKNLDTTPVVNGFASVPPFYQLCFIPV
CYP3A4, sequence (P08684 2-503): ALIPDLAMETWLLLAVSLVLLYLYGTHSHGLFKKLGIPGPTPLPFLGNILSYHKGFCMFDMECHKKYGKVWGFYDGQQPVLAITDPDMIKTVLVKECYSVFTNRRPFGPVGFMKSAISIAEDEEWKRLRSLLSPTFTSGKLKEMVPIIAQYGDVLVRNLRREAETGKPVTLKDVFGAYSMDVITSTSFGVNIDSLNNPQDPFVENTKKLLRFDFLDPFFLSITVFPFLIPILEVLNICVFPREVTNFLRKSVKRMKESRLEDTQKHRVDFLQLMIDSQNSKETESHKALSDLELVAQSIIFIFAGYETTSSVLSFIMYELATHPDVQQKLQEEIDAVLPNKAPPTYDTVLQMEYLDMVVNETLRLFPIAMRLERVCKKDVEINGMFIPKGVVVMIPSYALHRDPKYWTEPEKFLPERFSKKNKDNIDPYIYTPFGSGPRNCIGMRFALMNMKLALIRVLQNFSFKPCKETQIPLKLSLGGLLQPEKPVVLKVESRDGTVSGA

The term IC50 denotes the concentration at which inhibition is half-maximal. With `CC(C)(C)CC(=O)Nc1nc2c(F)cc(C#N)cn2c1-c1ccc(OC(F)(F)F)cc1` [Compound 1], the IC50 at CYP2D6 is 42 µM; at CYP2C19, 31 µM; against CYP1A2, greater than 50 µM; at CYP2C9 it was 46 µM. In addition, 14 µM corresponded to half-maximal inhibition against CYP3A4 (human, microsomes) (IC50 at 10 min).
Consider `CC(C)(C)CC(=O)Nc1nc2c(F)cc(C#N)cn2c1C1=CCCC1` [Compound 3], for which the IC50 at CYP2D6 (setting [1]), at CYP2C19 (setting [2]), at CYP1A2 (setting [3]) and on CYP2C9 (setting [4]) was greater than 50 µM each time. Moreover, on CYP3A4 (setting [5]), the IC50 at 10 min is greater than 50 µM.
Regarding `CC(C)(C)CC(=O)Nc1nc2c(F)cc(C#N)cn2c1C12CC(C1)C2` [Compound 5], the IC50 at CYP2D6 (setting [1]), at CYP2C19 (setting [2]), on CYP1A2 (setting [3]) and at CYP2C9 (setting [4]) was greater than 50 µM each time. In addition, on CYP3A4 (setting [5]), the IC50 at 10 min is greater than 50 µM.
Regarding `CC(C)(C)CC(=O)Nc1nc2c(C(F)(F)F)cc(C#N)cn2c1C12CC(C1)C2` [Compound 6], the IC50 on CYP2D6 (setting [1]), on CYP2C19 (setting [2]), on CYP1A2 (setting [3]) and at CYP2C9 (setting [4]) was greater than 50 µM throughout. In addition, at CYP3A4 (setting [5]), the IC50 at 10 min was greater than 50 µM.

Values taken from patent publication EP4786454A1, “HETEROARYL DERIVATIVE AND USE THEREOF” (priority 2023, dated 2025).
